Source: patent US8501740B2, “Methods of treatment of opioid tolerance, physical dependence, pain and addiction with inhibitors of certain growth factor receptors” (priority 2007, dated 2013)
“Also recorded” adds a separate entry of the source.

Columns and labels:
[1] = system: rat; experiment: Tail-flick latency (TFL) test of morphine analgesia and tolerance; format: in vivo; conditions: for Analgesic effect of the drug itself: administered alone, without morphine; for Development versus behavioral expression of morphine tolerance (tail flick latency): co-administered with morphine for several days, then morphine alone on the final day; for Effect on analgesic effect of morphine given subsequently: drug in 10% cyclodextrin vehicle for 4 days, morphine alone on day 5; for Reversal of established morphine tolerance: morphine given for varying periods, then drug added
Procedure: Analgesic effectiveness is typically studied using the tail-flick test, where a hot light is shined on a rat's tail and the time required for the rat to move (“flick”) its tail recorded (TFL, or tail flick latency).
To determine whether GLEEVEC® (imatinib) blocked the development or expression of tolerance, morphine and GLEEVEC® (imatinib) was co-administered for 4 days, and then on day 5 morphine alone was administered.
To determine whether IRESSA® (gefitinib) blocked the development or expression of tolerance, morphine and IRESSA® (gefitinib) was co-administered for 4 days, and then on day 5 morphine alone was administered.
A drug can inhibit the expression of narcotic tolerance if it is analgesic itself or if previous drug administration alters subsequent narcotic analgesia. To determine whether either of these possibilities were the case, animals were treated animals with either the cyclodextrin-based vehicle used to solubilize GLEEVEC® (imatinib) (10% CDSBE) or GLEEVEC® (imatinib) in vehicle for 4 days, and then on the fifth day were given morphine alone.
A drug can inhibit the expression of narcotic tolerance if it is analgesic itself or if previous drug administration altered narcotic analgesia. To determine whether either of these possibilities were the case, animals were treated animals with either the cyclodextrin-based vehicle used to solubilize IRESSA® (gefitinib) (10% CAPTISOL® (sulfobutylether-β-cyclodextrin)) or IRESSA® (gefitinib) in vehicle for 4 days, and then on the fifth day were given morphine alone.
Another possible explanation for apparent inhibition of opioid tolerance would be that GLEEVEC® (imatinib) or IRESSA® (gefitinib) could alter morphine pharmacokinetics, causing a different time course of analgesia with co-administration.
Next it was desirable to determine if GLEEVEC® (imatinib) could reverse morphine tolerance. NMDA antagonists, which are known to inhibit the development of morphine tolerance, can only partially reverse morphine tolerance, and cannot reverse established tolerance. In addition, NMDA antagonists are highly toxic (many are chemically related to PCP), which also severely limits their clinical use. To determine whether GLEEVEC® (imatinib) could reverse established morphine tolerance, morphine was given for varying periods of time, and then GLEEVEC® (imatinib) was added. […] On day 7, morphine alone was given to all groups.

[2] = system: rats that have undergone sciatic nerve ligation; experiment: Sciatic nerve ligation model of neuropathic pain, Von Frey hair testing; format: in vivo; conditions: for Effect upon allodynia / analgesia (Von Frey hairs): sciatic nerve ligation, alone or co-administered as labelled
Excerpt: To test the methods of treatment presented herein, we use the sciatic nerve ligation model of Chung et al. (model of neuropathic pain). Chung, J. M., H. K. Kim, and K. Chung, Segmental Spinal Nerve Ligation Model Of Neuropathic Pain, Methods Mol Med, 2004. 99: p. 35-45. Animals undergo this ligation procedure, are allowed to recover, and tested for pain sensitivity using Von Frey hairs and/or pressure testing.
To test the methods of treatment presented herein, we use the sciatic nerve ligation model of Chung et al. (model of neuropathic pain). Chung, J. M., H. K. Kim, and K. Chung, Segmental spinal nerve ligation model of neuropathic pain. Methods Mol Med, 2004. 99: p. 35-45. Animals undergo this ligation procedure, are allowed to recover, and tested for pain sensitivity using Von Frey hairs and/or pressure testing.

[3] = system: PDGFR-beta; experiment: PDGFR-beta tyrosine phosphorylation in cell lines (immunoprecipitation, Western blotting with PY-20); format: cell-based
Procedure: Cells were treated with morphine, gabapentin, morphine and gabapentin, or water for 40 minutes. Cells were then washed, lysed, and immunoprecipitation was performed using a PDGFR-beta antibody. Western blotting was then performed using PY-20 antibody, which detects tyrosine phosphorylation. Blots were then stripped and re-probed with PDGFR-beta antibody to control for the amount of PDGFR-beta loaded in each lane.

[4] = system: PDGF receptor; conditions: cited from earlier work
[5] = system: animals made physically dependent upon morphine; experiment: Morphine physical dependence, naloxone-precipitated withdrawal; format: in vivo; conditions: morphine pellets, drug systemically twice daily
Excerpt: Animals were pelleted with continuous release morphine pellets, and treated with GLEEVEC® (imatinib) systemically twice daily. Withdrawal was precipitated by injection of naloxone.

[6] = system: alcohol dependent animals; conditions: cited from earlier work

Row | Compound | Analgesic effect of the drug itself [1] | Development versus behavioral expression of morphine tolerance (tail flick latency) [1] | Effect on analgesic effect of morphine given subsequently [1] | Effect upon allodynia / analgesia (Von Frey hairs) [2] | Time of peak analgesic effect ([1]; time course on 4 consecutive days) [min] | Increase in PDGFR-beta phosphorylation ([3]; cells treated for 40 minutes) [%] | Inhibition of receptor tyrosine kinase activity of the PDGF receptor [4] | Inhibition of tolerance when co-administered with morphine from the beginning [1] | Reversal of established morphine tolerance [1] | Inhibition of morphine tolerance ([1]; spinally administered, initial studies) | Weight loss in precipitated withdrawal [5] | Withdrawal behaviors in precipitated withdrawal [5] | Doses required to block behavioral expression of tolerance, relative to GLEEVEC (imatinib) ([1]; rat, in vivo) [fold higher] | Block of morphine-induced PDGFR-beta phosphorylation / PDGFR activation ([3]; co-administration with morphine, 40 minutes) | Alcohol intake and self-administration ([6]; alcohol dependent animals) | Anxiogenic effects of alcohol withdrawal ([6]; alcohol dependent rats) | Number of doses to achieve peak effect ([2]; sciatic nerve ligation model)
1 | COc1cc2ncnc(Nc3ccc(F)c(Cl)c3)c2cc1OCCCN1CCOCC1 [IRESSA® (gefitinib), gefitinib] | do not exhibit analgesic effects; also recorded: neither IRESSA® (gefitinib) nor vehicle was analgesic when administered alone | inhibits the development, not the behavioral expression of opioid tolerance; also recorded: inhibited the development of morphine tolerance | do not exhibit analgesic effects, or interfere with the analgesic effects of morphine; also recorded: did not alter the analgesic effect of morphine given on day 5 | neither morphine nor IRESSA® (gefitinib) alone have analgesic properties; also recorded: had no effect upon allodynia |  |  |  |  |  |  |  |  |  |  |  |  | 
2 | CN1CC[C@]23c4c5ccc(O)c4O[C@H]2[C@@H](O)C=C[C@H]3[C@H]1C5 [morphine] |  |  |  | neither morphine nor IRESSA® (gefitinib) alone have analgesic properties; also recorded: neither morphine nor GLEEVEC® (imatinib) alone have analgesic properties; also recorded: had no effect upon allodynia | 30 | 40 |  |  |  |  |  |  |  |  |  |  | 
3 | Cc1ccc(NC(=O)c2ccc(CN3CCN(C)CC3)cc2)cc1Nc1nccc(-c2cccnc2)n1 [GLEEVEC® (imatinib), imatinib] | do not exhibit analgesic effects; also recorded: neither GLEEVEC® (imatinib) nor vehicle was analgesic when administered alone; also recorded: no analgesic effect at any time point | inhibits the behavioral expression, not the development of opioid tolerance; also recorded: blocked the behavioral expression of morphine tolerance; also recorded: inhibited the expression of tolerance alone | do not exhibit analgesic effects, or interfere with the analgesic effects of morphine; also recorded: did not alter the analgesic effect of morphine given subsequently on day 5 | neither morphine nor GLEEVEC® (imatinib) alone have analgesic properties; also recorded: had no effect upon allodynia |  |  | inhibit the receptor tyrosine kinase activity of the PDGF receptor | inhibited tolerance | completely reverses and inhibits the behavioral expression of tolerance; also recorded: completely reversed tolerance | inhibited morphine tolerance | without affecting weight loss; also recorded: Weight loss was not affected | reduces the behavioral expression of paw shakes and wet dog shakes; also recorded: withdrawal behaviors such as teeth chattering and wet dog shakes were reduced |  |  |  |  | 
4 | NCC1(CC(=O)O)CCCCC1 [gabapentin] | not analgesic itself | blocks the behavioral expression of tolerance |  | does not cause complete analgesia |  |  |  | blocks tolerance | reverses established tolerance |  |  |  | 10 to 100 | blocked by co-administration of gabapentin | reduce alcohol intake and self-administration | reversing anxiogenic effects of alcohol withdrawal | takes several doses to achieve its peak effect
